Test results reported in patent US20220296595A1, “CDK INHIBITORS” (QILU REGOR THERAPEUTICS INC., priority 2019, published 2022).
Read-outs that look alike come from different tables or passages of the source.

Columns and labels:
CDK4/CyclinD1 = target: T1, CDK4/CyclinD1 (Homo sapiens, UniProt P11802); experiment: Assay for inhibition of CDK4/CyclinD1 (Caliper microfluidic kinase assay); assay type: biochemical
T1 construct: purchased Thermofisher PR8064A
Procedure: The CDK4 enzyme assay for IC50 determination was performed as follows. Microfluidic kinase detection technology (Caliper) was used to monitor the phosphorylation of peptide substrate by CDK4/CyclinD1. The total reaction volume was 15 μL containing buffer A (100 mM HEPES (pH 7.5), 0.1% BSA, 0.01% Triton X-100, 1 mM DTT, 10 mM MgCl2, 10 μM Sodium Orthovanadate, 10 μM Beta-Glycerophosphate), 200 μM ATP, 1 nM CDK4/CyclinD1 (Thermofisher, PR8064A), 1 μM FL-34 (5-FAM-[…]), and the test compound at appropriate dilutions in DMSO. All components were added to the 384-well plate (Corning, 4514), and incubated at Room Temperature for 3 hours. The reaction was terminated by addition of 15 μL Stop Buffer (180 mM HEPES (pH 7.5), 20 mM EDTA, Coating-3 reagent (PerkinElmer, 760050)). The plate was then loaded on Caliper EZ Reader (EZ Reader II, PerkinElmer, HD-4HYSG2772), and the reaction mixtures including substrate and product were sipped into the microfluidic chip for separation and detection. The IC50 values of the test compound were determined by fitting the inhibition curves by 4 parameter sigmoidal dose-response model using the Xlfit5/GraphPad Prism 5 software.

CDK2/CyclinE1 = target: T2, CDK2/CyclinE1 (Homo sapiens, UniProt P24941); experiment: Assay for inhibition of CDK2/CyclinE1 (Caliper microfluidic kinase assay); assay type: biochemical; conditions: read-out: CDK2 IC50
T2 construct: purchased SignalChem C29-18G
Procedure: The CDK2 enzyme assay for IC50 determination was performed as follows. Microfluidic kinase detection technology (Caliper) was used to monitor the phosphorylation of peptide substrate by CDK2/CyclinE1. The total reaction volume was 15 μL containing buffer A (100 mM HEPES (pH 7.5), 0.1% BSA, 0.01% Triton X-100, 1 mM DTT, 10 mM MgCl2, 10 μM Sodium Orthovanadate, 10 μM Beta-Glycerophosphate), 100 μM ATP, 5 nM CDK2/CyclinE1 (SignalChem, C29-18G), 5 μM FL-18 (5-FAM-QSPKKG-NH2), and the test compound at appropriate dilutions in DMSO. All components were added to the 384-well plate (Corning, 4514), and incubate at Room Temperature for 3 hours. The reaction was terminated by addition of 15 μL Stop Buffer (180 mM HEPES (pH 7.5), 20 mM EDTA, Coating-3 reagent (PerkinElmer, 760050)). The plate was loaded on Caliper EZ Reader (EZ Reader II, PerkinElmer, HD-4HYSG2772), and the reaction mixtures including substrate and product were sipped into the microfluidic chip for separation and detection. The IC50 values of the test compound were determined by fitting the inhibition curves by 4 parameter sigmoidal dose-response model using the Xlfit5/GraphPad Prism 5 software.

T47D breast cancer cells = experiment: Anti-proliferation assay in T47D cell (Cyquant, day 6); assay type: cell-based, human; conditions: anti-proliferation, T47D cells, read-out: T47D IC50
Excerpt: T47D is a human breast cancer cell line commonly used in biomedical research involving the hormonal expression of cancer cells. T47D cells are distinct from other human breast cancer cells in that their progesterone receptors (PR) are not regulated by estradiol, a hormone that is abundant within the cells themselves. T47D cells have been employed in studies of the effects of progesterone on breast cancer and the corresponding transcriptional regulation caused by introduced drugs. The cells have been noted to be extremely resistant to estrogens and antiestrogens.
T47D breast cancer cells from American Type Culture Collection (ATCC, HTB-133) were plated at 3000 cells/well in 96-well plates, and were incubated in RPMI 1640 medium (Gibco, 31800105) with 10% Fetal Bovine Serum (FBS, Biowest, FB-1058) at 37° C., 5% CO2. After overnight incubation, baseline values were measured of the samples from one plate using Cyquant reagent (Invitrogen, C35011) following manufacturer's recommendations. Cells were incubated with the detection reagent for 1 hour at 37° C., and then the fluorescence was measured with excitation at 485 nm and emission at 535 nm using Spectra Max M5 (Molecular Devices, HD-4HYSG3196). Other plates were dosed with compounds at a ten-point dose concentration from 10 μM to 0.51 nM in a 3-fold dilution scheme. On day 6 after compound addition, Cyquant reagent was added and the fluorescence was measured using Spectra Max M5. The IC50 values of the test compound's anti-proliferation activity were determined from the baseline subtracted viability readout curve using Xlfit5/GraphPad Prism 5 software.

T1 sequence (P11802 whole entry): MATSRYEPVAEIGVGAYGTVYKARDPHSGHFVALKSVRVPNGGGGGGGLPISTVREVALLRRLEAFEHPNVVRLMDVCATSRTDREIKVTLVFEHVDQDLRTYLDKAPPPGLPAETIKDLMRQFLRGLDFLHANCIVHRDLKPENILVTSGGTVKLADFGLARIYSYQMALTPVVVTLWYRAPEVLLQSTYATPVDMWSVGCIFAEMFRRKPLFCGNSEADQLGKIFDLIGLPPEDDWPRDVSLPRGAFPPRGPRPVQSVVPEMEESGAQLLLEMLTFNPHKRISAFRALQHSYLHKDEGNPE
T1 sequence (P24385 whole entry partner): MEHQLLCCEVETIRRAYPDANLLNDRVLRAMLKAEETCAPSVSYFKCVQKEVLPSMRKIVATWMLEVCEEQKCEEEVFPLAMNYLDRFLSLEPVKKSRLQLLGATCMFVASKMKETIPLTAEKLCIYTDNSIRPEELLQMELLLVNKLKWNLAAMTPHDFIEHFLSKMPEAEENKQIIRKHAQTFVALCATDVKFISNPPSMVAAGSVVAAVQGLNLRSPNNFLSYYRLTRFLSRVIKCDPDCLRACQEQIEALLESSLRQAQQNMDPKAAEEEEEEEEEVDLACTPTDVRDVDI

Row | SMILES | IC50 (CDK4/CyclinD1; CDK4/CyclinD1, 200 μM ATP) [µM] | IC50 (CDK2/CyclinE1; CDK2/CyclinE1, 100 μM ATP) [µM] | IC50 (T47D breast cancer cells; Homo sapiens, T47D) [µM] | IC50 (CDK4/CyclinD1; CDK4/CyclinD1) [µM] | IC50 (CDK2/CyclinE1; CDK2/CyclinE1) [µM] | IC50 (T47D breast cancer cells) [µM]
1 | CNC1CCN(c2ccc(Nc3nccc(-c4ccn5ncc(C(C)C)c5c4)n3)nc2)C(=O)C1 (single isomer, unassigned) [Synthetic Example 206, 1-[6-[[4-(3-isopropylpyrazolo[1,5-a]pyridin-5-yl)pyrimidin-2-yl]amino]-3-pyridyl]-4-(methylamino)piperidin-2-one] | < 0.01 | < 0.01 | – | – | – | < 0.1
2 | Cc1nc2c(F)nc(-c3ccnc(Nc4ccc(N5CCCC(N(C)C)C5=O)cn4)n3)cc2n1C(C)C (single isomer, unassigned) [Synthetic Example 302, 3-(dimethylamino)-1-[6-[[4-(4-fluoro-1-isopropyl-2-methyl-imidazo[4,5-c]pyridin-6-yl)pyrimidin-2-yl]amino]-3-pyridyl]piperidin-2-one] | < 0.01 | > 1 | < 0.1 | – | – | –
3 | Cc1nc2c(F)nc(-c3ccnc(Nc4ccc(N5CCCC(N(C)C)C5=O)cn4)n3)cc2n1C(C)C (single isomer, unassigned) [Synthetic Example 303, 3-(dimethylamino)-1-[6-[[4-(4-fluoro-1-isopropyl-2-methyl-imidazo[4,5-c]pyridin-6-yl)pyrimidin-2-yl]amino]-3-pyridyl]piperidin-2-one] | < 0.01 | > 1 | – | – | – | < 0.1
4 | CC(C)c1cnn2ccc(-c3ccnc(Nc4ccc(C(=O)N5CCC(NC6CC6)C5)cc4)n3)cc12 (stereo not drawn) [compound 21] | < 0.01 | < 0.01 | – | – | – | < 0.1
5 | CCN1CCC(Cn2ccc(Nc3nccc(-c4cc5c(ncn5C(C)C)c(OC)n4)n3)n2)CC1 [compound 135] | 0.01 to 0.1 | > 1 | 0.1 to 0.5 | – | – | –
6 | Cc1nn2ccc(-c3ccnc(Nc4ccc(N5CCCC(N(C)C)C5=O)cc4)n3)cc2c1C(C)C (stereo not drawn) [compound 178] | < 0.01 | 0.1 to 1 | < 0.1 | – | – | –
7 | Cc1nn2ccc(-c3ccnc(Nc4ccc(N5CCCC(N)C5=O)cc4)n3)cc2c1C(C)C (stereo not drawn) [compound 216] | < 0.01 | 0.01 to 0.1 | < 0.1 | – | – | –
8 | CC(C)n1cnc2c1CN(c1ccnc(Nc3ccc(N4CCCC(N)C4=O)cc3)n1)CC2 (stereo not drawn) [compound 246] | < 0.01 | 0.1 to 1 | 0.5 to 1 | – | – | –
9 | CC(C)n1cnc2c1CN(c1nc(Nc3ccc(N4CCCC(N)C4=O)cc3)ncc1F)CC2 (stereo not drawn) [compound 247] | < 0.01 | 0.01 to 0.1 | < 0.1 | – | – | –
10 | CC(C)n1cnc2c1CN(c1nc(Nc3ccc(N4CCCC(N(C)C)C4=O)cc3)ncc1F)CC2 (stereo not drawn) [compound 249] | < 0.01 | 0.01 to 0.1 | < 0.1 | – | – | –
11 | CC(C)N1CCN(c2ccc(Nc3ncc(F)c(N4CCc5ncn(C(C)C)c5C4)n3)nc2)CC1 [compound 250] | < 0.01 | 0.1 to 1 | < 0.1 | – | – | –
12 | CC(C)n1cnc2c1CN(c1nc(Nc3ccc(N4CCCC(N(C)C)C4)cc3)ncc1F)CC2 (stereo not drawn) [compound 252] | < 0.01 | < 0.01 | < 0.1 | – | – | –
13 | CC(C)n1cnc2c1CN(c1nc(Nc3ccc(N4CCCNC4=O)cc3)ncc1F)CC2 [compound 253] | < 0.01 | 0.01 to 0.1 | < 0.1 | – | – | –
14 | CC(C)n1cnc2c1CN(c1nc(Nc3ccc(N4CCNCC4=O)cc3)ncc1F)CC2 [compound 257] | < 0.01 | < 0.01 | < 0.1 | – | – | –

Further lines, with some results ahead:

Row | IC50 (CDK4/CyclinD1; CDK4/CyclinD1, 200 μM ATP) [µM] | IC50 (CDK2/CyclinE1; CDK2/CyclinE1, 100 μM ATP) [µM] | IC50 (T47D breast cancer cells; Homo sapiens, T47D) [µM] | IC50 (CDK4/CyclinD1; CDK4/CyclinD1) [µM] | IC50 (CDK2/CyclinE1; CDK2/CyclinE1) [µM] | SMILES | IC50 (T47D breast cancer cells) [µM]
15 | < 0.01 | 0.1 to 1 | 0.1 to 0.5 | – | – | CC(C)c1cnn2ccc(-c3nc(Nc4ccc(N5CCN(C6CC6)CCC5=O)cn4)ncc3F)cc12 [Synthetic Example 49] | –
16 | 0.1 to 1 | 0.01 to 0.1 | 0.5 to 1 | – | – | CC(C)c1cnn2ccc(-c3nc(Nc4ccc(S(C)(=O)=O)cc4)ncc3F)cc12 [compound 6] | –
17 | 0.01 to 0.1 | 0.1 to 1 | 0.5 to 1 | – | – | O=C1COCCN1c1ccc(Nc2ncc(F)c(-c3ccn4ncc(C5CCCC5)c4c3)n2)nc1 [compound 12] | –
18 | 0.01 to 0.1 | 0.01 to 0.1 | < 0.1 | – | – | CCN1CC(=O)N(c2ccc(Nc3ncc(F)c(-c4ccn5ncc(C(C)C)c5c4)n3)nc2)CC1=O [compound 14] | –
19 | < 0.01 | 0.01 to 0.1 | 0.1 to 0.5 | – | – | CC(C)c1cnn2ccc(-c3nc(Nc4ccc(N5CCN(CCF)CCC5=O)cn4)ncc3F)cc12 [compound 54] | –
20 | – | – | 0.1 to 0.5 | < 0.01 | > 1 | CC(C)n1cnc2c(OC(F)F)nc(-c3ccnc(Nc4ccc(N5CCC(N(C)C)CC5=O)cn4)n3)cc21 (stereo not drawn) [compound 64] | –
21 | < 0.01 | < 0.01 | < 0.1 | – | – | CC(C)c1cnn2ccc(-c3ccnc(Nc4ccc(N5CCC(N(C)C)C5=O)cc4)n3)cc12 (stereo not drawn) [compound 144] | –
22 | < 0.01 | 0.01 to 0.1 | < 0.1 | – | – | CC(C)c1cnn2ccc(-c3ccnc(Nc4ccc(N5CCC(N(C)CCF)CC5=O)cn4)n3)cc12 (stereo not drawn) [compound 170] | –
23 | < 0.01 | 0.1 to 1 | 0.1 to 0.5 | – | – | CC(C)c1cnn2ccc(-c3ccnc(Nc4ccc(N5CCCC(N(C)C)C5=O)cc4)n3)cc12 (stereo not drawn) [compound 174] | –
24 | < 0.01 | 0.01 to 0.1 | < 0.1 | – | – | CNC1CCCN(c2ccc(Nc3nccc(-c4ccn5ncc(C(C)C)c5c4)n3)cn2)C1=O (stereo not drawn) [compound 185] | –
25 | < 0.01 | < 0.01 | < 0.1 | – | – | CC(C)c1cnn2ccc(-c3ccnc(Nc4ccc(N5CCC(NCCF)CC5=O)cn4)n3)cc12 (stereo not drawn) [compound 201] | –
26 | < 0.01 | 0.1 to 1 | < 0.1 | – | – | CNC1CCCN(c2ccc(Nc3nccc(-c4ccn5ncc(C(C)C)c5c4)n3)nc2)C1=O (stereo not drawn) [compound 208] | –
27 | < 0.01 | 0.01 to 0.1 | > 1 | – | – | CC(C)c1cnn2ccc(-c3ccnc(Nc4ccc(N5C(=O)C6CC5CN6)cn4)n3)cc12 (stereo not drawn) [compound 210] | –
28 | < 0.01 | < 0.01 | 0.5 to 1 | – | – | CC(C)(C)c1cnn2ccc(-c3ccnc(Nc4ccc(N5C(=O)C6CC5CN6)cn4)n3)cc12 (stereo not drawn) [compound 211] | –
29 | < 0.01 | < 0.01 | < 0.1 | – | – | CC1(N)CCN(c2ccc(Nc3nccc(-c4ccn5ncc(C(C)(C)C)c5c4)n3)nc2)C(=O)C1 (stereo not drawn) [compound 219] | –
30 | < 0.01 | 0.01 to 0.1 | < 0.1 | – | – | CC(C)(C)c1cnn2ccc(-c3ccnc(Nc4ccc(N5CCCC(N)C5=O)cn4)n3)cc12 (stereo not drawn) [compound 220] | –
31 | < 0.01 | > 1 | < 0.1 | – | – | CNC1CCCN(c2ccc(Nc3nccc(-c4ccn5ncc(C(C)(C)C)c5c4)n3)nc2)C1=O (stereo not drawn) [compound 221] | –
32 | < 0.01 | 0.01 to 0.1 | 0.1 to 0.5 | – | – | CC(C)n1cnc2c1CN(c1nc(Nc3ccc(N4CCNCC4=O)cn3)ncc1F)CC2 [compound 238] | –
33 | < 0.01 | 0.01 to 0.1 | 0.1 to 0.5 | – | – | CC(C)n1cnc2c1CN(c1nc(Nc3ccc(N4CCOCC4=O)cn3)ncc1F)CC2 [compound 239] | –
34 | < 0.01 | 0.01 to 0.1 | < 0.1 | – | – | CNC1CCCN(c2ccc(Nc3ncc(F)c(N4CCc5ncn(C(C)C)c5C4)n3)cc2)C1=O (stereo not drawn) [compound 248] | –
